Inhibition data for one molecule are collected here from paper PMC5601737, “Potential independent action of sigma receptor ligands through inhibition of the Kv2.1 channel” (Oncotarget, 2017).

The experiment has as its target T1, Kv2.1 (Rattus norvegicus, UniProt P15387).
T1 construct: gene Kcnb1
T1 sequence (P15387 1-857): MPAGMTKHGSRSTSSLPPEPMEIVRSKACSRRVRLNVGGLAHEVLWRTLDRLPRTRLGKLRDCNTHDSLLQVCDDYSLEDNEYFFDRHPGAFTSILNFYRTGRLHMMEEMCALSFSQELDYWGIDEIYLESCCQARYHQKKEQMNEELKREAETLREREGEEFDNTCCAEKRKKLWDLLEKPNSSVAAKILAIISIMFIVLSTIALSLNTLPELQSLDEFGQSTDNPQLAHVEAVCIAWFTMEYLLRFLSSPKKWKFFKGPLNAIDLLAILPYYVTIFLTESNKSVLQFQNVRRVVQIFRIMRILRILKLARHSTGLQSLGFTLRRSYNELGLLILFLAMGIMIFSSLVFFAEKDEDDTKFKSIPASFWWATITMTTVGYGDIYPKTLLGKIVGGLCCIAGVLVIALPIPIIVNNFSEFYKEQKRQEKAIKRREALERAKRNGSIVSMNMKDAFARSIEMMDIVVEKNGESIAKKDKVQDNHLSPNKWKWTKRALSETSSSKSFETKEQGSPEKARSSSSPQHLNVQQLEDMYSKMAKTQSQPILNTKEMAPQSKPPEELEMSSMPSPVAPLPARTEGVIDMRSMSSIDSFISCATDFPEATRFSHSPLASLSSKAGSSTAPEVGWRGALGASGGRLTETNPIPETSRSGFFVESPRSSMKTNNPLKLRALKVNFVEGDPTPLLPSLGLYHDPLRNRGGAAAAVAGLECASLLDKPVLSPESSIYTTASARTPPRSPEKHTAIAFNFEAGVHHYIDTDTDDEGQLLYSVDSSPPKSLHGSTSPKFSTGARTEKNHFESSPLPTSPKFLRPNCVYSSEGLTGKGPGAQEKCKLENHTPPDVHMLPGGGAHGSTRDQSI
The experiment is described as follows: whole-cell patch clamp, HEK293 stably expressing Kv2.[…], sigma-1 receptor knockout; […] inhibition at […]. It counts as cell-based.

The structures appear in SMILES notation.

`COc1cccc2c1CCCC2CCCN1CCN(C2CCCCC2)CC1` (stereo not shown) [PB28]: testing at 10 µM gave an inhibition of 65%.
